Laboratory results: ChEMBL document CHEMBL1124182, “Design, synthesis, and properties of (4S)-7-(4-amino-2-substituted-pyrrolidin-1-yl)quinolone-3-carboxylic acids” (J Med Chem, 1988)
In brackets after ≈: the same amount, converted by molar mass.

Legend:
[1] = Partition coefficient (logP); type: physicochemical; conditions: octanol/water
Acinetobacter = test: In vitro Minimum inhibitory concentration against Acinetobacter CMX 669; type: functional; conditions: Acinetobacter; read-out: MIC
Escherichia coli [2] = test: In vitro Minimum inhibitory concentration against Escherichia coli Juhl; type: functional
Escherichia coli [3] = test: Supercoiling inhibition assay using purified DNA gyrase isolated from Escherichia coli H560; type: functional; conditions: read-out: I50
Klebsiella pneumoniae = test: In vitro Minimum inhibitory concentration against Klebsiella pneumoniae 8045; type: functional
Mus musculus [4] = test: (§1) Blood level was evaluated by a disk agar diffusion assay at 3.0 hh when administered at a peroral dose of 25 mg/kg; type: functional; conditions: route oral
Mus musculus [5] = test: (§2) Blood level was evaluated by a disk agar diffusion assay at 6.0 hr when administered at a peroral dose of 25 mg/kg; type: functional; conditions: route oral
Mus musculus [6] = test: (§3) Blood level was evaluated by a disk agar diffusion assay at 2.0 hr when administered at a peroral dose of 25 mg/kg; type: functional; conditions: route oral
Mus musculus [7] = test: (§4) Blood level was evaluated by a disk agar diffusion assay at 0.5 hr when administered at a peroral dose of 25 mg/kg; type: functional; conditions: route oral
Mus musculus [8] = test: (§5) Blood level was evaluated by a disk agar diffusion assay at 1.0 hr when administered at a peroral dose of 25 mg/kg; type: functional; conditions: route oral
Mus musculus [9] = test: (§6) Blood level was evaluated by a disk agar diffusion assay at 24.0 hr when administered at a peroral dose of 25 mg/kg; type: functional; conditions: route oral
Pseudomonas aeruginosa [10] = test: In vitro Minimum inhibitory concentration against Pseudomonas aeruginosa 5007; type: functional
Pseudomonas aeruginosa [11] = test: In vitro Minimum inhibitory concentration against Pseudomonas aeruginosa K799/WT; type: functional
[12] = system: Staphylococcus epidermidis; test: In vitro Minimum inhibitory concentration against Staphylococcus epidermidis 3519; type: functional
Streptococcus agalactiae = test: In vitro Minimum inhibitory concentration against Streptococcus agalactiae CMX 508; type: functional
Staphylococcus aureus [13] = test: In vitro Minimum inhibitory concentration against Staphylococcus aureus 45; type: functional
Staphylococcus aureus [14] = test: In vitro Minimum inhibitory concentration against Staphylococcus aureus A5177; type: functional
Staphylococcus aureus [15] = test: In vitro Minimum inhibitory concentration against Staphylococcus aureus ATCC 6538P; type: functional
Streptococcus equinus = test: In vitro Minimum inhibitory concentration against Streptococcus bovis A5169; type: functional
Enterococcus faecium = test: In vitro Minimum inhibitory concentration against Streptococcus faecium ATCC 8043; type: functional
Streptococcus pyogenes = test: In vitro Minimum inhibitory concentration against Streptococcus pyogenes 930; type: functional
[16] = Compound was evaluated for the solubility in Ringer's buffer solution; type: ADME; conditions: Ringer's buffer solution; read-out: Solubility
Staphylococcus aureus [17] = test: In vitro Minimum inhibitory concentration against Staphylococcus aureus CMX 686B; type: functional
Mus musculus [18] = test: In vivo efficacy against Escherichia coli Juhl, in mouse protection tests when administered perorally (po); type: functional
Mus musculus [19] = test: In vivo efficacy against Escherichia coli Juhl, in mouse protection tests when administered subcutaneously (sc); type: functional
Staphylococcus aureus [20] = test: (§7) In vivo efficacy against Staphylococcus aureus 10649, in mouse protection tests when administered perorally (po); type: functional
Staphylococcus aureus [21] = test: (§8) In vivo efficacy against Staphylococcus aureus 10649, in mouse protection tests when administered subcutaneously (sc); type: functional
[22] = as §6; type: ADME, organism-based; parameters: dose 25 mg/kg, route oral; conditions: mouse, po, read-out: Blood level
[23] = as §1; type: ADME, organism-based; parameters: dose 25 mg/kg, route oral; conditions: mouse, po, read-out: Blood level
[24] = as §2; type: ADME, organism-based; parameters: dose 25 mg/kg, route oral; conditions: mouse, po, read-out: Blood level
[25] = as §4; type: ADME, organism-based; parameters: dose 25 mg/kg, route oral; conditions: mouse, po, read-out: Blood level
[26] = as §5; type: ADME, organism-based; parameters: dose 25 mg/kg, route oral; conditions: mouse, po, read-out: Blood level
[27] = as §3; type: ADME, organism-based; parameters: dose 25 mg/kg, route oral; conditions: mouse, po, read-out: Blood level
Mus musculus [28] = test: as §7; type: functional
Mus musculus [29] = test: as §8; type: functional

## C[C@@H]1C[C@H](N)CN1c1nc2c(cc1F)c(=O)c(C(=O)O)cn2-c1ccc(F)cc1F
[1]
  logP: -0.11
Acinetobacter
  MIC: 0.78 mg/L (≈ 1.86 µM)
Escherichia coli [2]
  MIC: 0.39 mg/L (≈ 0.932 µM)
Escherichia coli [3]
  IC50: 7.5 mg/L (≈ 17.9 µM)
Klebsiella pneumoniae
  MIC: 0.39 mg/L (≈ 0.932 µM)
Mus musculus [4]
  Blood level: 2.2 µg/mL
Mus musculus [5]
  Blood level: 1.1 µg/mL
Mus musculus [6]
  Blood level: 3.7 µg/mL
Mus musculus [7]
  Blood level: 5.3 µg/mL
Mus musculus [8]
  Blood level: 12.4 µg/mL
Mus musculus [9]
  Blood level: 0 µg/mL
Pseudomonas aeruginosa [10]
  MIC: 12.5 mg/L (≈ 29.9 µM)
Pseudomonas aeruginosa [11]
  MIC: 3.1 mg/L (≈ 7.41 µM)
[12]
  MIC: 0.39 mg/L (≈ 0.932 µM)
Streptococcus agalactiae
  MIC: 6.2 mg/L (≈ 14.8 µM)
Staphylococcus aureus [13]
  MIC: 0.39 mg/L (≈ 0.932 µM)
Staphylococcus aureus [14]
  MIC: 0.39 mg/L (≈ 0.932 µM)
Staphylococcus aureus [15]
  MIC: 0.2 mg/L (≈ 0.478 µM)
Streptococcus equinus
  MIC: 6.2 mg/L (≈ 14.8 µM)
Enterococcus faecium
  MIC: 3.1 mg/L (≈ 7.41 µM)
Streptococcus pyogenes
  MIC: 1.56 mg/L (≈ 3.73 µM)
[16]
  solubility: 0.34 mg/mL (≈ 813 µM)
Staphylococcus aureus [17]
  MIC: 0.2 mg/L (≈ 0.478 µM)

## N[C@H]1CC(CO)N(c2cc3c(cc2F)c(=O)c(C(=O)O)cn3-c2ccc(F)cc2F)C1 (stereo partly specified)
[1]
  logP: -0.98
Acinetobacter
  MIC: 6.2 mg/L (≈ 14.3 µM)
Escherichia coli [2]
  MIC: 0.78 mg/L (≈ 1.8 µM)
Escherichia coli [3]
  IC50: 0.4 mg/L (≈ 0.923 µM)
Klebsiella pneumoniae
  MIC: 0.78 mg/L (≈ 1.8 µM)
Mus musculus [18]
  ED50: > 16 mg/kg
Mus musculus [19]
  ED50: 5.9 mg/kg
Pseudomonas aeruginosa [10]
  MIC: 0.78 mg/L (≈ 1.8 µM)
Pseudomonas aeruginosa [11]
  MIC: 0.39 mg/L (≈ 0.9 µM)
[12]
  MIC: 0.78 mg/L (≈ 1.8 µM)
Streptococcus agalactiae
  MIC: 0.78 mg/L (≈ 1.8 µM)
Staphylococcus aureus [13]
  MIC: 1.56 mg/L (≈ 3.6 µM)
Staphylococcus aureus [14]
  MIC: 0.78 mg/L (≈ 1.8 µM)
Staphylococcus aureus [15]
  MIC: 0.1 mg/L (≈ 0.231 µM)
Streptococcus equinus
  MIC: 1.56 mg/L (≈ 3.6 µM)
Enterococcus faecium
  MIC: 0.78 mg/L (≈ 1.8 µM)
Staphylococcus aureus [20]
  ED50: 5.4 mg/kg
Staphylococcus aureus [21]
  ED50: 0.7 mg/kg
Streptococcus pyogenes
  MIC: 0.39 mg/L (≈ 0.9 µM)
[16]
  solubility: 0.06 mg/mL (≈ 138 µM)
Staphylococcus aureus [17]
  MIC: 0.39 mg/L (≈ 0.9 µM)

## C[C@H]1C[C@H](N)CN1c1nc2c(cc1F)c(=O)c(C(=O)O)cn2-c1ccc(F)cc1
Acinetobacter
  MIC: 0.1 mg/L (≈ 0.25 µM)
Escherichia coli [2]
  MIC: 0.05 mg/L (≈ 0.125 µM)
Klebsiella pneumoniae
  MIC: 0.05 mg/L (≈ 0.125 µM)
[22]
  concentration at 24 h: 0.1 µg/mL
[23]
  concentration at 3 h: 0.8 µg/mL
[24]
  concentration at 6 h: 0.3 µg/mL
[25]
  concentration at 0.5 h: 2.4 µg/mL
[26]
  concentration at 1 h: 1.9 µg/mL
[27]
  concentration at 2 h: 1.5 µg/mL
Pseudomonas aeruginosa [10]
  MIC: 0.39 mg/L (≈ 0.974 µM)
Pseudomonas aeruginosa [11]
  MIC: 0.39 mg/L (≈ 0.974 µM)
[12]
  MIC: 0.1 mg/L (≈ 0.25 µM)
Streptococcus agalactiae
  MIC: 0.78 mg/L (≈ 1.95 µM)
Staphylococcus aureus [13]
  MIC: 0.1 mg/L (≈ 0.25 µM)
Staphylococcus aureus [14]
  MIC: 0.1 mg/L (≈ 0.25 µM)
Staphylococcus aureus [15]
  MIC: 0.05 mg/L (≈ 0.125 µM)
Streptococcus equinus
  MIC: 0.78 mg/L (≈ 1.95 µM)
Enterococcus faecium
  MIC: 0.39 mg/L (≈ 0.974 µM)
Staphylococcus aureus [20]
  ED50: 5.7 mg/kg
Staphylococcus aureus [21]
  ED50: 2 mg/kg
Streptococcus pyogenes
  MIC: 0.39 mg/L (≈ 0.974 µM)
Staphylococcus aureus [17]
  MIC: 0.05 mg/L (≈ 0.125 µM)

## C[C@@H]1C[C@H](N)CN1c1cc2c(cc1F)c(=O)c(C(=O)O)cn2-c1ccc(F)cc1F
[1]
  logP: 0.03
Acinetobacter
  MIC: 3.1 mg/L (≈ 7.43 µM)
Escherichia coli [2]
  MIC: 0.78 mg/L (≈ 1.87 µM)
Escherichia coli [3]
  IC50: 18 mg/L (≈ 43.1 µM)
Klebsiella pneumoniae
  MIC: 0.78 mg/L (≈ 1.87 µM)
Pseudomonas aeruginosa [10]
  MIC: 5 mg/L (≈ 12 µM)
Pseudomonas aeruginosa [11]
  MIC: 6.2 mg/L (≈ 14.9 µM)
[12]
  MIC: 0.78 mg/L (≈ 1.87 µM)
Streptococcus agalactiae
  MIC: 6.2 mg/L (≈ 14.9 µM)
Staphylococcus aureus [13]
  MIC: 0.78 mg/L (≈ 1.87 µM)
Staphylococcus aureus [14]
  MIC: 0.78 mg/L (≈ 1.87 µM)
Staphylococcus aureus [15]
  MIC: 0.39 mg/L (≈ 0.934 µM)
Streptococcus equinus
  MIC: 6.2 mg/L (≈ 14.9 µM)
Enterococcus faecium
  MIC: 3.1 mg/L (≈ 7.43 µM)
Streptococcus pyogenes
  MIC: 1.56 mg/L (≈ 3.74 µM)
[16]
  solubility: 0.182 mg/mL (≈ 436 µM)
Staphylococcus aureus [17]
  MIC: 0.39 mg/L (≈ 0.934 µM)

## N[C@H]1C[C@@H](CO)N(c2cc3c(cc2F)c(=O)c(C(=O)O)cn3-c2ccc(F)cc2F)C1
Acinetobacter
  MIC: 25 mg/L (≈ 57.7 µM)
Escherichia coli [2]
  MIC: 3.1 mg/L (≈ 7.15 µM)
Escherichia coli [3]
  IC50: 10 mg/L (≈ 23.1 µM)
Klebsiella pneumoniae
  MIC: 3.1 mg/L (≈ 7.15 µM)
Pseudomonas aeruginosa [10]
  MIC: 12.5 mg/L (≈ 28.8 µM)
Pseudomonas aeruginosa [11]
  MIC: 12.5 mg/L (≈ 28.8 µM)
[12]
  MIC: 12.5 mg/L (≈ 28.8 µM)
Streptococcus agalactiae
  MIC: 12.5 mg/L (≈ 28.8 µM)
Staphylococcus aureus [13]
  MIC: 12.5 mg/L (≈ 28.8 µM)
Staphylococcus aureus [14]
  MIC: 6.2 mg/L (≈ 14.3 µM)
Staphylococcus aureus [15]
  MIC: 1.56 mg/L (≈ 3.6 µM)
Streptococcus equinus
  MIC: 50 mg/L (≈ 115 µM)
Enterococcus faecium
  MIC: 25 mg/L (≈ 57.7 µM)
Streptococcus pyogenes
  MIC: 25 mg/L (≈ 57.7 µM)
[16]
  solubility: 0.06 mg/mL (≈ 138 µM)
Staphylococcus aureus [17]
  MIC: 6.2 mg/L (≈ 14.3 µM)

## NC1CCN(c2cc3c(cc2F)c(=O)c(C(=O)O)cn3-c2ccc(F)cc2)C1 (stereo unspecified)
Mus musculus [18]
  ED50: 5.8 mg/kg
Mus musculus [19]
  ED50: 1 mg/kg
Mus musculus [28]
  ED50: 6.2 mg/kg
Mus musculus [29]
  ED50: 0.8 mg/kg

## O=C(O)c1cn(-c2ccc(F)cc2)c2cc(N3CCC[C@H]3CO)c(F)cc2c1=O
Acinetobacter
  MIC: > 100 mg/L
Escherichia coli [2]
  MIC: 50 mg/L (≈ 125 µM)
Klebsiella pneumoniae
  MIC: 25 mg/L (≈ 62.4 µM)
Pseudomonas aeruginosa [10]
  MIC: > 100 mg/L
Pseudomonas aeruginosa [11]
  MIC: > 100 mg/L
[12]
  MIC: 3.1 mg/L (≈ 7.74 µM)
Streptococcus agalactiae
  MIC: 100 mg/L (≈ 250 µM)
Staphylococcus aureus [13]
  MIC: 3.1 mg/L (≈ 7.74 µM)
Staphylococcus aureus [14]
  MIC: 3.1 mg/L (≈ 7.74 µM)
Staphylococcus aureus [15]
  MIC: 3.1 mg/L (≈ 7.74 µM)
Streptococcus equinus
  MIC: 100 mg/L (≈ 250 µM)
Enterococcus faecium
  MIC: > 100 mg/L
Streptococcus pyogenes
  MIC: 50 mg/L (≈ 125 µM)
Staphylococcus aureus [17]
  MIC: 3.1 mg/L (≈ 7.74 µM)

## COCC1C[C@H](N)CN1c1nc2c(cc1F)c(=O)c(C(=O)O)cn2-c1ccc(F)cc1F (stereo partly specified)
Acinetobacter
  MIC: 0.78 mg/L (≈ 1.74 µM)
Escherichia coli [2]
  MIC: 0.2 mg/L (≈ 0.446 µM)
Klebsiella pneumoniae
  MIC: 0.1 mg/L (≈ 0.223 µM)
Pseudomonas aeruginosa [10]
  MIC: 1.56 mg/L (≈ 3.48 µM)
Pseudomonas aeruginosa [11]
  MIC: 1.56 mg/L (≈ 3.48 µM)
[12]
  MIC: 0.39 mg/L (≈ 0.87 µM)
Streptococcus agalactiae
  MIC: 0.78 mg/L (≈ 1.74 µM)
Staphylococcus aureus [13]
  MIC: 0.39 mg/L (≈ 0.87 µM)
Staphylococcus aureus [14]
  MIC: 0.2 mg/L (≈ 0.446 µM)
Staphylococcus aureus [15]
  MIC: 0.1 mg/L (≈ 0.223 µM)
Streptococcus equinus
  MIC: 1.56 mg/L (≈ 3.48 µM)
Enterococcus faecium
  MIC: 0.78 mg/L (≈ 1.74 µM)
Streptococcus pyogenes
  MIC: 0.78 mg/L (≈ 1.74 µM)
Staphylococcus aureus [17]
  MIC: 0.1 mg/L (≈ 0.223 µM)
